One data set concerns the target T1, Bcl-2 (Homo sapiens, UniProt P10415).
T1 construct: lacking their C-terminal transmembrane domains (last 20 amino-acids) (“ΔTM”); made in house; host or cells: E. coli XL-1 Blue (pGEX 4T-1)
Description: FPA competitive FITC-Bid BH3 peptide displacement, Bcl-2. The data set is classed as binding. The text has this:
(§1) (A) Structure of gambogic acid.
(§2) Fluorescence Polarization Assays (FPAs).
(§3) Competitive Peptide Displacement Assays.

The target in a further data set is T2, Bcl-B (Homo sapiens, UniProt Q9HD36).
T2 construct: lacking their C-terminal transmembrane domains (last 20 amino-acids) (“ΔTM”); made in house; host or cells: E. coli XL-1 Blue (pGEX 4T-1)
In words: FPA competitive FITC-Bid BH3 peptide displacement, Bcl-B. The data set is classed as binding. The note with it: 100 nM GST-Bcl-B, 5 nM FITC-Bid BH3 peptide, read-out: IC50 (μM) for Gambogic acid.
Text: as §1, §2, §3

The next data set concerns BIR3 of XIAP. Description: FPA, rhodamine-SMAC peptide binding to BIR3 of XIAP. The following applies: not shown.
The target of a further data set is Hsp70 (Homo sapiens, UniProt P0DMV8). In words: FPA, FITC-ATP binding to Hsp70. The note with it: not shown.
The subject of data set [1] is anti-apoptotic Bcl-2-family proteins (Bcl-2, Bcl-XL, Bfl-1, Bcl-W, Mcl-1). Description: tBid-induced SMAC release from isolated HeLa mitochondria. The data set is classed as biochemical, human. The procedure:
Mitochondria Purification and Protein Release Assays. HeLa cells were pelleted by centrifugation, and then washed once in HM buffer (10 mM HEPES, pH 7.4, 250 mM mannitol, 10 mM KCl, 5 mM MgCl2, 1 mM EGTA), containing 1 mM PMSF and a mixture of protease inhibitors (Roche Molecular Biochemicals). The cell pellet was then homogenized in HM buffer by 50 strokes of a dounce homogenizer, using a B-type pestle. The homogenate was centrifuged twice at 600 g for 5 min to remove nuclei and debris. The resulting supernatant was centrifuged at 10,000 g for 10 min, and the resulting mitochondria-containing pellet was washed twice with the HM buffer.
For mitochondrial protein release assays, 10 μl of mitochondria (50 μg) were added into a final volume of 50 μl HM buffer containing gambogic acid, tBid or tBid pre-incubated with gambogic acid or Bcl-2 family proteins at 30° C. for 15 min. The reactions were further incubated at 30° C. for 40-60 min, then mitochondria were pelleted by centrifugation and the supernatants were collected, boiled in Laemmli sample buffer, and analyzed by SDS-PAGE/immunoblotting using anti-SMAC antibody (Zhai et al., J. Biol. Chem. 280:15815-15824, 2005).
GA neutralizes activity of Bcl-2-family proteins in vitro. An active, N-terminally truncated form of the pro-apoptotic BH3-containing protein Bid (tBid) induces release of apoptogenic proteins such as SMAC from isolated mitochondria in vitro (Becattini et al., Chem. Biol. 11:1107-1117, 2004; Zhai et al., J. Biol. Chem. 280:15815-15824, 2005; Luciano et al., J. Biol. Chem. 280:15825-15835, 2005). […] Samples were centrifuged to generate supernatants that were analyzed by SDS-PAGE/immunoblotting using anti-SMAC antibody. […] Complete restoration was typically achieved with 5 μM GA, representing an approximately 10:1 molar excess of GA relative to anti-apoptotic Bcl-2-family proteins.

The test system of data set [2] is Jurkat T-cell acute lymphoblastic leukemia. Description: Apoptosis, Annexin V/PI staining, Jurkat. The following applies: Homo sapiens, within 20-24 hrs, read-out: concentration required to induce apoptosis of 50% of the cells. The data set is classed as cell-based. Here is the method: (§4) Gambogic acid was used to treat HL-60 (black symbols) or Jurkat (white symbols) cells at concentrations of 0, 0.1, 0.2, 0.5, 2, 5 μM (from left to right).
(§5) Cell Culture, Transfection, and Apoptosis Assays.
(§6) GA overcomes cytoprotection of Bcl-2 in leukemia cells. GA has cytotoxic activity against various tumor cell lines in culture and induces apoptosis (Zhang et al., Bioorg. Med. Chem. 12:309-317, 2004; Zhao et al., Biol. Pharm. Bull. 27:998-1003, 2004). We confirmed the apoptosis-inducing activity of GA using Jurkat T-cell acute lymphoblastic leukemia and HL-60 acute promyelomonocytic leukemia cell lines, using Annexin V/propidium iodide (PI) staining, counting Annexin V+/PT− cells as apoptotic (FIG. 3). The concentration of GA required to induce apoptosis of 50% of the cells within 20-24 hrs was ˜0.2 μM and ˜0.5 μM for Jurkat and HL-60, respectively.

Data set [3] has as its system HL-60 acute promyelomonocytic leukemia. In words: Apoptosis, Annexin V/PI staining, HL-60. The data set is classed as cell-based. The following applies: Homo sapiens, HL-60, within 20-24 hrs, read-out: concentration required to induce apoptosis of 50% of the cells. Here is the method:
as §4, §5, §6

Data set [4] deals with Bcl-2 over-expressing HL-60 cells. In words: Cytotoxicity in NEO-control vs Bcl-2 over-expressing HL-60 cells. It is filed as cell-based.
Text: Data are representative of at least 3 independent experiments.
as §5
We tested the cytotoxic activity of GA against HL-60 cells that had been stably transfected with NEO-control or Bcl-2-expression plasmids (Konopleva et al., Blood 95:3929-3938, 2000).

In a further data set the test system is bax+/+ bak+/+ MEFs. In words: Cytotoxicity in wild-type MEFs. The data set is classed as cell-based, mouse. The note with it: 20 hrs.
Text: as §5
GA-induced cytotoxicity is only partly Bcl-2-dependent. Anti-apoptotic Bcl-2-family proteins suppress mitochondria-initiated cell death by inhibiting pro-apoptotic Bcl-2 members Bax and Bak (Kroemer and Reed, Nat. Med. 6:513-519, 2000; Reed, Am. J. Pathol. 157:1415-1430, 2000; Li et al., Cell 116 (2 Suppl.):S57-59, 2 p. following S59). Consequently, when cells are genetically engineered to lack Bax and Bak, then Bcl-2 and related cytoprotective proteins no long display an anti-apoptotic phenotype (Wei et al., Science 292:727-730, 2001). Cells doubly deficient in Bax and Bak therefore provide a context for assessing the mechanism of GA-induced toxicity. GA killed transformed mouse fibroblasts (MEFs) generated from bax+/+ bak+/+ embryos in a concentration-dependent manner (FIG. 6A). […] We conclude therefore that GA induces cytotoxicity through mechanisms that are only partly dependent on Bcl-2-family proteins.

For data set [5] the following is noted: rats; cited from earlier work.
The next data set concerns the target T3, Bfl-1 (Homo sapiens, UniProt Q16548).
T3 sequence (Q16548 1-155 limits assumed): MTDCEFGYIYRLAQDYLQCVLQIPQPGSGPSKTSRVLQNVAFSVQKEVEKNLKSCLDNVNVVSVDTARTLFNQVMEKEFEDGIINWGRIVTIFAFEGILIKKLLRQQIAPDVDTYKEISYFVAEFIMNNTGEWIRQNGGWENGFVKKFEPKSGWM
Description: FPA competitive FITC-Bid BH3 peptide displacement, Bfl-1 (also HTS).

The text below walks through data of patent publication US20090163577A1, “METHODS AND COMPOSITIONS FOR ANTAGONIZING ANTI-APOPTOTIC Bcl-2-FAMILY PROTEINS” (Burnham Institute for Medical Research, priority 2007, published 2009).

Entries after “also recorded” stand apart in the source; their conditions may differ.

T1 sequence (P10415 1-219 limits assumed): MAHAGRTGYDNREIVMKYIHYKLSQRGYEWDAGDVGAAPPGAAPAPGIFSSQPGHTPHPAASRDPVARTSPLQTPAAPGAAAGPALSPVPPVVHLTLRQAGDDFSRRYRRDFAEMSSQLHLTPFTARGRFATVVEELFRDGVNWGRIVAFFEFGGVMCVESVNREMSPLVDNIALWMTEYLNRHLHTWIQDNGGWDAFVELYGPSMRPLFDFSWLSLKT
T2 sequence (Q9HD36 1-184 limits assumed): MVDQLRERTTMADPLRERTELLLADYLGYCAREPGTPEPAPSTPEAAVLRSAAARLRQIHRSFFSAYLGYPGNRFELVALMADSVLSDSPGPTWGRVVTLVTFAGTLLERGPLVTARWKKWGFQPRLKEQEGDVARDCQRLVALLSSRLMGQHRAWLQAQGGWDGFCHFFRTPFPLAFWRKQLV
Sequence of Hsp70 (P0DMV8 whole entry): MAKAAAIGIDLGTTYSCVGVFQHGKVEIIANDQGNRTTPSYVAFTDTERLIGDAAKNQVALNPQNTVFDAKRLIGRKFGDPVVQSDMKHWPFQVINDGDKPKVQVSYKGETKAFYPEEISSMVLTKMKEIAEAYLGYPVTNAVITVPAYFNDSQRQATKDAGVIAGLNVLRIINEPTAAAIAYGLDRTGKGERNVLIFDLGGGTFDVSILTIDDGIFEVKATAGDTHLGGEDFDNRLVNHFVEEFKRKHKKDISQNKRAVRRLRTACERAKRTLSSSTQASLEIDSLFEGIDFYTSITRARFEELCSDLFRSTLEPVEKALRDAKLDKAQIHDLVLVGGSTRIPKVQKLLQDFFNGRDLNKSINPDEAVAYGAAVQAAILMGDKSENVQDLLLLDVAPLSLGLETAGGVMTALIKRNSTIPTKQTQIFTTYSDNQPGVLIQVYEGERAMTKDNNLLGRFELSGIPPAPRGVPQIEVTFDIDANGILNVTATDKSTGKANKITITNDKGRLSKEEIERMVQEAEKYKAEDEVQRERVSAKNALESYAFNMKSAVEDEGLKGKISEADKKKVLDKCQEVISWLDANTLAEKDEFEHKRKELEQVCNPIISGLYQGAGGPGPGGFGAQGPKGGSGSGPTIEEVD

As for `CC(C)=CCC[C@]1(C)C=Cc2c(O)c3c(c(CC=C(C)C)c2O1)O[C@]12C(=C[C@@H]4C[C@H]1C(C)(C)O[C@@]2(C/C=C(/C)C(=O)O)C4=O)C3=O` [Gambogic acid], the IC50 is 1.21 µM on Bcl-2 (100 nM GST-Bcl-2, 5 nM FITC-Bid BH3 peptide, read-out: IC50 (μM) for Gambogic acid); 0.66 µM at Bcl-B; 1060 nM on Bfl-1. Also, at Bcl-2 (FIG. 1), the “sensitivity to displacement of FITC-BH3 peptide among the six proteins” value is given as “the least”. For the same molecule, the “inhibition of rhodamine-SMAC peptide binding” value in the data set on BIR3 of XIAP was “did not inhibit”. On Hsp70, the “inhibition of FITC-ATP binding” value is reported as “did not inhibit”. Also, in [1] (20 ng tBid, 2 μg Bcl-2-family protein, 50 μg HeLa mitochondria), the “concentration for complete restoration of tBid-induced SMAC release” value came to 5 µM. In addition, the “restoration of tBid-induced SMAC release” value in data set [1] (recombinant Bcl-2, Bcl-XL, Bfl-1, Bcl-W or Mcl-1 added, listed as GA) is “neutralizes their suppressive effects on mitochondria in a concentration-dependent manner; also recorded: restored tBid-induced SMAC release in a concentration-dependent manner”. For the same molecule, the “tBid-induced release of SMAC” value in data set [1] (recombinant Bcl-2-family proteins not added) is on record as “enhanced”. For the same molecule, the EC50 in data set [2] is about 200 nM; in data set [3], about 500 nM. Also, in data set [4], the “effect of Bcl-2 over-expression on cytotoxicity” value was “reduced the sensitivity”. In the data set with bax+/+ bak+/+ MEFs, the “killing of wild-type MEFs” value is given as “killed”. The tolerability result in data set [5] is given as “well tolerated”. Besides, the “suppression of BH3 peptide binding in HTS” value at Bfl-1 (library screen, 10 μM compound) is at least 50%.
